Measurements published in patent US8846699B2, “Quinazoline derivatives as a multiplex inhibitor and method for the preparation thereof” (Hanmi Pharm. Co., Ltd., priority 2005, dated 2014).

Experiments:
[1] = test system: Human Umbilical Vein Endothelial Cell (HUVEC); experiment: Inhibitory effect on growth of human umbilical vein endothelial cell (HUVEC), MTS; type: cell-based; settings: Homo sapiens, 96 h, 10 ng/ml VEGF, absorbance 490 nm
VEGFR2 (KDR) = VEGFR2 (KDR) (Homo sapiens (Human), UniProt P35968); experiment: VEGFR2 (KDR) enzyme assay, fluorescence polarization; type: biochemical; settings: 5 μM ATP, poly(Glu, Tyr) substrate
Method in brief: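 Buffer: 20 mM HEPES pH 7.4 with 5 mM MgCl2, 2 mM MnCl2 and 50 μM Na3VO4. Compound (0.0001–10 μM) was premixed 10 min with VEGFR2 (200 ng/10 μl), then poly(Glu,Tyr) substrate (10 ng/ml) and 5 μM ATP were added for 1 h at room temperature. EDTA-quenched samples were read by FP after 30 min with antibody and tracer.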

EGFR1 (HER-1) = EGFR1 (HER-1) (Homo sapiens (Human), UniProt P00533); experiment: EGFR1 (HER-1) enzyme assay, fluorescence polarization; type: biochemical; settings: 100 μM ATP, poly(Glu, Tyr) substrate
[2] = test system: skin cancer cell line, A431; experiment: Inhibitory effect on growth of cancer cell line A431, SRB; type: cell-based; settings: Homo sapiens, A-431, 72 h, overexpressed EGFR1 (HER-1)
Method in brief: (§1)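 Growth inhibition was measured by sulforhodamine-B staining (absorbance 570 nm) of TCA-fixed cells after 72 h compound exposure at 37 °C, 5% CO2. Test concentrations ran from 10 μM in 10-fold steps to 10^−4, with DMSO below 1%, in 10% FBS DMEM.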

[3] = test system: breast cancer cell line, SK-Br3; experiment: Inhibitory effect on growth of cancer cell line SK-Br3, SRB; type: cell-based; settings: Homo sapiens, SK-BR-3, 72 h, overexpressed EGFR2 (HER-2)
Method in brief: as §1

[4] = test system: colon and rectal cancer cell line, SW-620; experiment: Inhibitory effect on growth of cancer cell line SW-620, SRB; type: cell-based; settings: Homo sapiens, 72 h, not having overexpressed EGFR and EGFR2
Method in brief: as §1

Chain of EGFR1 (HER-1) (P00533 25-1210): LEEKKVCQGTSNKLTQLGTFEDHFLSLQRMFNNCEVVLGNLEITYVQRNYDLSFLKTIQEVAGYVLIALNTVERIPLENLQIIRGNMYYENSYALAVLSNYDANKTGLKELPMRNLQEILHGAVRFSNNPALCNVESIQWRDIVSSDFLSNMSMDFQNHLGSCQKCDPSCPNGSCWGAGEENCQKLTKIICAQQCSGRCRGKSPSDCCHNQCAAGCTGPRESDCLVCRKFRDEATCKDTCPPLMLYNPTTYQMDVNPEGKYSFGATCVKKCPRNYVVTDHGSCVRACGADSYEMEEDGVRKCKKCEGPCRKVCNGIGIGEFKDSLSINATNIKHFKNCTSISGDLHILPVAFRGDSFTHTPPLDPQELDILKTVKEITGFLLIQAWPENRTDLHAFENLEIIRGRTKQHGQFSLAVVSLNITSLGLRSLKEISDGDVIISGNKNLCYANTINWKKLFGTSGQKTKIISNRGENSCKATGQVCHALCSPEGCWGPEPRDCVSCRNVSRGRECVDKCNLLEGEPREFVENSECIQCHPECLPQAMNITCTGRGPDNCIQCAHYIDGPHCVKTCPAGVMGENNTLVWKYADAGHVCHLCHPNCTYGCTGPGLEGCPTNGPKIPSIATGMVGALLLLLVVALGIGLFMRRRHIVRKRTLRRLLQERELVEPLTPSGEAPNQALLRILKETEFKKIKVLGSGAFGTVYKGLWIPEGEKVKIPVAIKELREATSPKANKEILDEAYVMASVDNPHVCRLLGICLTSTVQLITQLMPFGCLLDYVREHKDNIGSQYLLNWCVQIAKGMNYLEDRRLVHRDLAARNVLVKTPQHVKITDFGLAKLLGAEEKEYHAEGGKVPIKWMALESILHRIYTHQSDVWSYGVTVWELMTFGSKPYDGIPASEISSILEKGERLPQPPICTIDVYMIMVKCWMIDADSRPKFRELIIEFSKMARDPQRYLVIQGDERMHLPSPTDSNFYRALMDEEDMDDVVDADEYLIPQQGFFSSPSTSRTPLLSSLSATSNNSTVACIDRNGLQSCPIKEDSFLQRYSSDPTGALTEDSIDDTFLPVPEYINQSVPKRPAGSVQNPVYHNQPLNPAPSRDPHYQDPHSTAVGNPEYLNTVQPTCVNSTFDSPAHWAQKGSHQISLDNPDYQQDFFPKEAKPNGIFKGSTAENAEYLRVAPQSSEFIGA
Chain of VEGFR2 (KDR) (P35968 20-1356): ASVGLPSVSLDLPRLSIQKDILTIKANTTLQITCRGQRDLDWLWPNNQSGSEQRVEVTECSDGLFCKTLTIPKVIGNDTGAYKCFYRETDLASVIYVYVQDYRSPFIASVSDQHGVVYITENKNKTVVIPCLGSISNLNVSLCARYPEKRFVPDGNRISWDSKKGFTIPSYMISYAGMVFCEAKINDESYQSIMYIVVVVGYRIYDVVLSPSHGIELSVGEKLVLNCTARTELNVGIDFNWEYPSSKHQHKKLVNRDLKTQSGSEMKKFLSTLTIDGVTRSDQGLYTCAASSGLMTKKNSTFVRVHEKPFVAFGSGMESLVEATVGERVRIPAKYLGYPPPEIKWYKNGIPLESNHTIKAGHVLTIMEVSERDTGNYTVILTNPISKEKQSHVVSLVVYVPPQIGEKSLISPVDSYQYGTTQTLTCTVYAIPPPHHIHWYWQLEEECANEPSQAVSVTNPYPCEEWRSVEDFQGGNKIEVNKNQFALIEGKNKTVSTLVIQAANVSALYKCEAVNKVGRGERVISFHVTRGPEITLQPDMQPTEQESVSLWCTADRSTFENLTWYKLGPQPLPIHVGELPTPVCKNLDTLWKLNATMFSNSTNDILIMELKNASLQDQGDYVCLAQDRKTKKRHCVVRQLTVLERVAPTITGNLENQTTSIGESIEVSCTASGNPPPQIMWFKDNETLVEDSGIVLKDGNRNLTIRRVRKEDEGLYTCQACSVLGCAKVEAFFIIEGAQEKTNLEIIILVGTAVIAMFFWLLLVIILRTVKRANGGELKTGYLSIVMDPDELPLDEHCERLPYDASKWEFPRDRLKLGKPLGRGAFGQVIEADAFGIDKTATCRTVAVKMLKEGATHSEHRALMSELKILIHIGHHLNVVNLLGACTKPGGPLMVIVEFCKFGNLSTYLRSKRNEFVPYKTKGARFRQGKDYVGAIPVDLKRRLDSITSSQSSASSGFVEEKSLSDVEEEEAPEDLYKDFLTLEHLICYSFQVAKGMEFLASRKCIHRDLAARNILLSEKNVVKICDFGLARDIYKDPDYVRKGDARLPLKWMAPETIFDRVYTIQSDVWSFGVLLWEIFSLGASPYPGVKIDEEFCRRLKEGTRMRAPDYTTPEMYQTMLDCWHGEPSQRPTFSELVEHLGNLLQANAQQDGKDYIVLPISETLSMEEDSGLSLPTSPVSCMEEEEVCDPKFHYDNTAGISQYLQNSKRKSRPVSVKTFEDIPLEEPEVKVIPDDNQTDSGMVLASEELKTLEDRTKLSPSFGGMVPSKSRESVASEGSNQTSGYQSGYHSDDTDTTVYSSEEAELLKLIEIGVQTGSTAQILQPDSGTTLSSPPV

SMILES | IC50 [1] [nM] | IC50 (VEGFR2 (KDR)) [nM] | IC50 (EGFR1 (HER-1)) [nM] | IC50 [2] [nM] | IC50 [3] [nM] | IC50 [4] [nM]
C=CC(=O)Nc1cc2c(Nc3ccc(Br)cc3F)ncnc2cc1OCCCNC(C)=O [Example 13, N-[7-(3-acetylamino-propoxy)-4-(4-bromo-2-fluoro-phenylamino)-quinazolin-6-yl]-acrylamide] | 79 | 157 | 4 | 28 | 45 | 10000
C=CC(=O)Nc1cc2c(Nc3ccc(Br)cc3F)ncnc2cc1OCCCNC(=O)C(F)(F)F [Example 14, N-{4-(4-bromo-2-fluoro-phenylamino)-7-[3-(2,2,2-trifluoro-acetylamino)-propoxy]-quinazolin-6-yl}-acrylamide] | 286 | 591 | 59 | 97 | 57 | 10000
C=CC(=O)Nc1cc2c(Nc3ccc(Br)cc3F)ncnc2cc1OCCCNC(=O)CS(C)(=O)=O [Example 15, N-{4-(4-bromo-2-fluoro-phenylamino)-7-[3-(2-methanesulfonyl-acetylamino)-propoxy]-quinazolin-6-yl}-acrylamide] | 150 | 330 | 68 | 118 | 734 | 9570
C=CC(=O)Nc1cc2c(Nc3ccc(Br)cc3F)ncnc2cc1OCCCNC(=O)NCC [Example 16, N-{4-(4-bromo-2-fluoro-phenylamino)-7-[3-(3-ethyl-ureido)-propoxy]-quinazolin-6-yl}-acrylamide] | 102 | 208 | 11 | 18 | 228 | 10000
C=CC(=O)Nc1cc2c(Nc3ccc(Br)cc3F)ncnc2cc1OCCCNC [Example 17, N-[4-(4-bromo-2-fluoro-phenylamino)-7-(3-methylamino-propoxy)-quinazolin-6-yl]-acrylamide] | 87 | 154 | 3 | 11 | 64 | 2020
C=CC(=O)Nc1cc2c(Nc3ccc(Br)cc3F)ncnc2cc1OCCNC(C)=O [Example 18, N-[7-(2-acetylamino-ethoxy)-4-(4-bromo-2-fluoro-phenylamino)-quinazolin-6-yl]-acrylamide] | 52 | 96 | 2 | 15 | 137 | 8070
C=CC(=O)Nc1cc2c(Nc3ccc(Br)cc3F)ncnc2cc1OCCN(C)C [Example 19, N-[4-(4-bromo-2-fluoro-phenylamino)-7-(2-dimethylamino-ethoxy)-quinazolin-6-yl]-acrylamide] | 350 | 450 | 9 | 39 | 813 | 10000
C=CC(=O)Nc1cc2c(Nc3ccc(Br)cc3F)ncnc2cc1OCCCCNC(C)=O [Example 20, N-[7-(4-acetylamino-butoxy)-4-(4-bromo-2-fluoro-phenylamino)-quinazolin-6-yl]-acrylamide] | 682 | 545 | 10 | 45 | 1100 | 10000
C=CC(=O)Nc1cc2c(Nc3ccc(Br)cc3F)ncnc2cc1OCCNC(=O)C1CC1 [Example 21, cyclopropane carboxylic acid {2-[6-acrylamino-4-(4-bromo-2-fluoro-phenylamino)-quinazolin-7-yloxy]-ethyl}-amide] | 951 | 513 | 8 | 20 | 36 | 7900
C=CC(=O)Nc1cc2c(Nc3ccc(Br)cc3F)ncnc2cc1OCCNC(=O)C(F)F [Example 22, N-{4-(4-bromo-2-fluoro-phenylamino)-7-[2-(2,2-difluoro-acetylamino)-ethoxy]-quinazolin-6-yl}-acrylamide] | 961 | 523 | 5 | 45 | 92 | 9780
C=CC(=O)Nc1cc2c(Nc3ccc(Br)cc3F)ncnc2cc1OCCNC(=O)NCC [Example 23, N-{4-(4-bromo-2-fluoro-phenylamino)-7-[2-(3-ethyl-ureido)-ethoxy]-quinazolin-6-yl}-acrylamide] | 99 | 250 | 2 | 15 | 38 | 8100
C=CC(=O)Nc1cc2c(Nc3ccc(Br)cc3F)ncnc2cc1OCCNC(N)=O [Example 24, N-[4-(4-bromo-2-fluoro-phenylamino)-7-(2-ureido-ethoxy)-quinazolin-6-yl]-acrylamide] | 90 | 250 | 4 | 40 | 75 | 7600
C=CC(=O)Nc1cc2c(Nc3ccc(Br)cc3F)ncnc2cc1OCCNC(=O)CN(C)C [Example 25, N-[4-(4-bromo-2-fluoro-phenylamino)-7-[2-(2-dimethylamino-acetylamino)-ethoxy]-quinazolin-6-yl]-acrylamide] | 786 | 584 | 2 | 16 | 21 | 5790
C=CC(=O)NCCOc1cc2ncnc(Nc3ccc(Br)cc3F)c2cc1NC(=O)C=C [Example 26, N-{2-[6-acryloylamino-4-(4-bromo-2-fluoro-phenylamino)-quinazolin-7-yloxy]-ethyl}-acrylamide] | 87 | 250 | 5 | 49 | 80 | 10000
C=CC(=O)Nc1cc2c(Nc3ccc(Br)cc3F)ncnc2cc1OCCNC(=O)CC [Example 27, N-[4-(4-bromo-2-fluoro-phenylamino)-7-(2-propionylamino-ethoxy)-quinazolin-6-yl]-acrylamide] | 96 | 250 | 3 | 30 | 50 | 9560
C=CC(=O)Nc1cc2c(Nc3ccc(Br)cc3F)ncnc2cc1OCCNC(=O)C(F)(F)F [Example 28, N-[4-(4-bromo-2-fluoro-phenylamino)-7-[2-(2,2,2-trifluoro-acetylamino)-ethoxy]-quinazolin-6-yl]-acrylamide] | 977 | 500 | 23 | 76 | 233 | 9680
C=CC(=O)Nc1cc2c(Nc3ccc(Br)cc3F)ncnc2cc1OCCN [Example 29, N-[7-(2-amino-ethoxy)-4-(4-bromo-2-fluoro-phenylamino)-quinazolin-6-yl]-acrylamide] | 951 | 545 | 4 | 46 | 145 | 10000
C=CC(=O)Nc1cc2c(Nc3ccc(Br)cc3F)ncnc2cc1OCCNC [Example 30, N-[4-(4-bromo-2-fluoro-phenylamino)-7-(2-methylamino-ethoxy)-quinazolin-6-yl]-acrylamide] | 964 | 513 | 96 | 127 | 581 | 4530
C=CCCOc1cc2ncnc(Nc3ccc(Br)cc3F)c2cc1NC(=O)C=C [Example 31, N-[4-(4-bromo-2-fluoro-phenylamino)-7-but-3-enyloxy-quinazolin-6-yl]-acrylamide] | 686 | 523 | 90 | 93 | 55 | 2530
